According to patent US9926281B2 (priority 2014, dated 2018):
Read-outs that look alike come from different tables or passages of the source.

Experiments:
human ADAMTS-5 [1] = target: T1, human ADAMTS-5 (Homo sapiens (Human), UniProt Q9UNA0); conditions: read-out: hADAMTS-5 potency IC50
human ADAMTS-5 [2] = target: T1, human ADAMTS-5; conditions: read-out: hADAMTS-5 potency IC50; remark: listed apart in the source
Protocol: Finally, the fluorescence is read on the Envision (Perkin Elmer) after an incubation of 90 min at 37° C.

human TACE = human TACE (Homo sapiens (Human), UniProt P78536); conditions: read-out: TACE potency IC50
rnADAMTS-5 (1-564-6H) = rnADAMTS-5 (1-564-6H) (Rattus norvegicus, UniProt Q6TY19); conditions: read-out: Rat ADAMTS-5 potency IC50
human MMP13 = human MMP13 (Homo sapiens (Human), UniProt P45452); conditions: read-out: hMMP-13 potency IC50
Protocol: Human MMP13 is preactivated by incubated the enzyme in the same buffer complemented with 1 mM freshly prepared p-Aminophenylmercuric acetate (AMPA) for 1 hour at 37° C.

T1 sequence (Q9UNA0 262-930): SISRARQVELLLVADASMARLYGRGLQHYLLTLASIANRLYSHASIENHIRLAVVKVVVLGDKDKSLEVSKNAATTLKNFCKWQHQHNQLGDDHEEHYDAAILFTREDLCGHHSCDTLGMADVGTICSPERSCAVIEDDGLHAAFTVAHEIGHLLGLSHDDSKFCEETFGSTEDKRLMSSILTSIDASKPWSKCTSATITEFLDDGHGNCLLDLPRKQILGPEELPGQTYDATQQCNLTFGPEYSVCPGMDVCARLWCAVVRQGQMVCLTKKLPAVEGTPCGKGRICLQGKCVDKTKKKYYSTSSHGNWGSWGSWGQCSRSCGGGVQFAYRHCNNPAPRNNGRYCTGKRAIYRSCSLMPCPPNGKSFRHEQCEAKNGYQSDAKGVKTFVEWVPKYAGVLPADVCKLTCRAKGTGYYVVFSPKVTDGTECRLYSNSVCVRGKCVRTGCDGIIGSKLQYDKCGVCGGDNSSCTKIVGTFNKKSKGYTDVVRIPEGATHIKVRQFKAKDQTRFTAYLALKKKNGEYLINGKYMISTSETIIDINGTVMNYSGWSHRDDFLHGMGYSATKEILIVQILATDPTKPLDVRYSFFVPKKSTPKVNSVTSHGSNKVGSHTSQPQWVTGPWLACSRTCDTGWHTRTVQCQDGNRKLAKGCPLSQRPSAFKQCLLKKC
Chain of human TACE (P78536 whole entry, looked up, change not shown): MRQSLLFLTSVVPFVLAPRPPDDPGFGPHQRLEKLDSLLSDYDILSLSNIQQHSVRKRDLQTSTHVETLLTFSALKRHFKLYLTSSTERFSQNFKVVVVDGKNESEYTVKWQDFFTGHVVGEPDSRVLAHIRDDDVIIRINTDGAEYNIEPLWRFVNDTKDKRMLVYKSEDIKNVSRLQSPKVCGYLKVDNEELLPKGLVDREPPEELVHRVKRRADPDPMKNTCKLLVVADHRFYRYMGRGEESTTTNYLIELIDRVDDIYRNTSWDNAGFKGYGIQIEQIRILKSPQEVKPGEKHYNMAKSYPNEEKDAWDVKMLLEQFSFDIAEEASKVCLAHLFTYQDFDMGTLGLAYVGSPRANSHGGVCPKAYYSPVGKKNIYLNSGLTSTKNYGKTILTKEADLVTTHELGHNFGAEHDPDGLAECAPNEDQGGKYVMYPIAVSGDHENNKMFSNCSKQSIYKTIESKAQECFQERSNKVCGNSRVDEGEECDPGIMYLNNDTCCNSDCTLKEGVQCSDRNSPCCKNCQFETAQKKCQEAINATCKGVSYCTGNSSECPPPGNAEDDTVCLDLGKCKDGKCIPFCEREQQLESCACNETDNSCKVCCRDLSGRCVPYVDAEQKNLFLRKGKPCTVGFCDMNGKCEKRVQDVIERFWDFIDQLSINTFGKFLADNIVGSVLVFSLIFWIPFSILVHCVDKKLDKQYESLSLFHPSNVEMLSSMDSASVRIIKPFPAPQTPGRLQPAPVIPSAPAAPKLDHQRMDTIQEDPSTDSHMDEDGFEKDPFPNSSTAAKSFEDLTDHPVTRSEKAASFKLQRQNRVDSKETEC

SMILES | IC50 (human ADAMTS-5 [1]) | IC50 (human ADAMTS-5 [2]) | IC50 (human TACE) | IC50 (rnADAMTS-5 (1-564-6H)) | IC50 (human MMP13)
CC1CN(C(=O)CCC2(C3CC3)NC(=O)NC2=O)CCN1c1cccc(F)c1 (stereo not shown) [compound 149, 5-cyclopropyl-5-[3-[4-(3-fluorophenyl)-3-methyl-piperazin-1-yl]-3-oxo-propyl]imidazolidine-2,4-dione] | 79 nM |  |  |  | 
Cc1cc(F)ccc1N1CCN(C(=O)CCC2(C)NC(=O)NC2=O)CC1 (stereo not shown) [compound 61, 5-[3-[4-(4-fluoro-2-methyl-phenyl)piperazin-1-yl]-3-oxo-propyl]-5-methyl-imidazolidine-2,4-dione] | 2940 nM |  |  |  | 
CC1(CCC(=O)N2CCN(c3cccc(Cl)c3Cl)CC2)NC(=O)NC1=O (stereo not shown) [compound 41, 5-[3-[4-(2,3-dichlorophenyl)piperazin-1-yl]-3-oxo-propyl]-5-methyl-imidazolidine-2,4-dione] | 2660 nM |  |  |  | 
CC1(CCC(=O)N2CCN(c3nccs3)CC2)NC(=O)NC1=O (stereo not shown) [compound 59, 5-methyl-5-[3-oxo-3-(4-thiazol-2-ylpiperazin-1-yl)propyl]imidazolidine-2,4-dione] | > 20000 nM |  |  |  | 
Cc1ccc(N2CCN(C(=O)CCC3(c4ccccc4)NC(=O)NC3=O)CC2)c(C)c1 (stereo not shown) [compound 31, 5-[3-[4-(2,4-dimethylphenyl)piperazin-1-yl]-3-oxo-propyl]-5-phenyl-imidazolidine-2,4-dione] | 1060 nM |  |  |  | 
CC1(CCC(=O)N2CCN(c3ccccn3)CC2)NC(=O)NC1=O (stereo not shown) [compound 42, 5-methyl-5-[3-oxo-3-[4-(2-pyridyl)piperazin-1-yl]propyl]imidazolidine-2,4-dione] | > 3980 nM |  |  |  | 
CC1CN(C(=O)CCC2(C3CC3)NC(=O)NC2=O)CCN1c1cccc(Cl)c1 (stereo not shown) [compound 150, 5-[3-[4-(3-chlorophenyl)-3-methyl-piperazin-1-yl]-3-oxo-propyl]-5-cyclopropyl-imidazolidine-2,4-dione] | 95 nM |  |  |  | 
Cc1ccc(N2CCN(C(=O)CCC3(C)NC(=O)NC3=O)CC2)c(C)c1 (stereo not shown) [compound 38, 5-[3-[4-(2,4-dimethylphenyl)piperazin-1-yl]-3-oxo-propyl]-5-methyl-imidazolidine-2,4-dione] | > 4000 nM |  |  |  | 
CC(CC1(C2CCOCC2)NC(=O)NC1=O)C(=O)N1CCN(c2cc(Cl)cc(Cl)c2)CC1 (stereo not shown) [compound 199, 5-[3-[4-(3,5-dichlorophenyl)piperazin-1-yl]-2-methyl-3-oxo-propyl]-5-tetrahydropyran-4-yl-imidazolidine-2,4-dione] |  | 62 nM | 1050 nM | 48 nM | > 20000 nM
CC(C)(C)OC(=O)CC1(CCC(=O)N2CCN(c3cc(Cl)cc(Cl)c3)CC2)NC(=O)NC1=O (stereo not shown) [Cpd 188, tert-butyl 2-[4-[3-[4-(3,5-dichlorophenyl)piperazin-1-yl]-3-oxo-propyl]-2,5-dioxo-imidazolidin-4-yl]acetate] |  | 53 nM | > 4000 nM | 54 nM | 2670 nM
CC(CC1(C)NC(=O)NC1=O)C(=O)N1CCN(c2ccc(F)c(F)c2)CC1 (stereo not shown) [compound 211, 5-[3-[4-(3,4-difluorophenyl)piperazin-1-yl]-2-methyl-3-oxo-propyl]-5-methyl-imidazolidine-2,4-dione] |  | 48 nM | 3740 nM | 23 nM | 377 nM
CC(CC1(C)NC(=O)NC1=O)C(=O)N1CCN(c2cc(F)cc(F)c2)[C@@H](C)C1 (stereo partly drawn) [compound 213, 5-[3-[(3S)-4-(3,5-difluorophenyl)-3-methyl-piperazin-1-yl]-2-methyl-3-oxo-propyl]-5-methyl-imidazolidine-2,4-dione] |  | 30 nM | > 20000 nM | 21 nM | > 4000 nM
CC(CC1(C2CC2)NC(=O)NC1=O)C(=O)N1CCN(c2cc(Cl)cc(Cl)c2)CC1 (stereo not shown) [compound 172, 5-cyclopropyl-5-[3-[4-(3,5-dichlorophenyl)piperazin-1-yl]-2-methyl-3-oxo-propyl]imidazolidine-2,4-dione] |  | 17 nM | 311 nM | 11 nM | 2740 nM
C[C@H]1CN(C(=O)CCC2(C3CC3)NC(=O)NC2=O)CCN1c1ccc(F)c(Cl)c1 (stereo partly drawn) [compound 163, 5-[3-[(3S)-4-(3-chloro-4-fluoro-phenyl)-3-methyl-piperazin-1-yl]-3-oxo-propyl]-5-cyclopropyl-imidazolidine-2,4-dione] |  | 40 nM | > 20000 nM | 45 nM | > 20000 nM
O=C(CC1(CCC(=O)N2CCN(c3cc(Cl)cc(Cl)c3)CC2)NC(=O)NC1=O)NCCO (stereo not shown) [Cpd 189, 2-[4-[3-[4-(3,5-dichlorophenyl)piperazin-1-yl]-3-oxo-propyl]-2,5-dioxo-imidazolidin-4-yl]-N-(2-hydroxyethyl)acetamide] |  | 256 nM | > 4000 nM | 254 nM | > 20000 nM
CC(CC1(C)NC(=O)NC1=O)C(=O)N1CCN(c2ccc(F)c(Cl)c2)[C@@H](C)C1 (stereo partly drawn) [compound 405, 5-{3-[(S)-4-(3-Chloro-4-fluoro-phenyl)-3-methyl-piperazin-1-yl]-2-methyl-3-oxo-propyl}-5-methyl-imidazolidine-2,4-dione] |  | 22 nM | > 4000 nM | 18 nM | 2330 nM
CSCCC1(CC(C)C(=O)N2CCN(c3cc(Cl)cc(Cl)c3)CC2)NC(=O)NC1=O (stereo not shown) [compound 197, 5-[3-[4-(3,5-dichlorophenyl)piperazin-1-yl]-2-methyl-3-oxo-propyl]-5-(2-methylsulfanylethyl)imidazolidine-2,4-dione] |  | 26 nM | 134 nM | 21 nM | > 4000 nM
COC(=O)CC1(CCC(=O)N2CCN(c3cc(Cl)cc(Cl)c3)CC2)NC(=O)NC1=O (stereo not shown) [Cpd 182, Methyl 2-[4-[3-[4-(3,5-dichlorophenyl)piperazin-1-yl]-3-oxo-propyl]-2,5-dioxo-imidazolidin-4-yl]acetate] |  | 104 nM | > 4000 nM | 87 nM | > 20000 nM
Cc1ccc(F)cc1N1CCN(C(=O)C(C)CC2(C3CC3)NC(=O)NC2=O)CC1 (stereo not shown) [compound 174, 5-cyclopropyl-5-[3-[4-(5-fluoro-2-methyl-phenyl)piperazin-1-yl]-2-methyl-3-oxo-propyl]imidazolidine-2,4-dione] |  | 21 nM | 321 nM | 17 nM | > 20000 nM
C[C@H]1CN(C(=O)CCC2(C)NC(=O)NC2=O)CCN1c1ccc(Cl)c(Cl)c1 (stereo partly drawn) [compound 168, 5-[3-[(3S)-4-(3,4-dichlorophenyl)-3-methyl-piperazin-1-yl]-3-oxo-propyl]-5-methyl-imidazolidine-2,4-dione] |  | 76 nM | > 20000 nM | 129 nM | > 20000 nM
NCC1(CCC(=O)N2CCN(c3cc(Cl)cc(Cl)c3)CC2)NC(=O)NC1=O (stereo not shown) [compound 180, 5-(aminomethyl)-5-[3-[4-(3,5-dichlorophenyl)piperazin-1-yl]-3-oxo-propyl]imidazolidine-2,4-dione] |  | 177 nM | > 4000 nM | 241 nM | > 20000 nM
CC(CC1(C2CC2)NC(=O)NC1=O)C(=O)N1CCN(c2cccc(F)c2)[C@@H](C)C1 (stereo partly drawn) [compound 190, 5-cyclopropyl-5-[3-[(3S)-4-(3-fluorophenyl)-3-methyl-piperazin-1-yl]-2-methyl-3-oxo-propyl]imidazolidine-2,4-dione] |  | 22 nM | > 20000 nM | 15 nM | 3060 nM
Cc1ccc(F)cc1N1CCN(C(=O)C(C)CC2(C)NC(=O)NC2=O)CC1 (stereo not shown) [compound 175, 5-[3-[4-(5-fluoro-2-methyl-phenyl)piperazin-1-yl]-2-methyl-3-oxo-propyl]-5-methyl-imidazolidine-2,4-dione] |  | 25 nM | 251 nM | 22 nM | > 20000 nM
C[C@H]1CN(C(=O)CCC2(C3CC3)NC(=O)NC2=O)CCN1c1ccc(F)c(F)c1 (stereo partly drawn) [compound 161, 5-cyclopropyl-5-[3-[(3S)-4-(3,4-difluorophenyl)-3-methyl-piperazin-1-yl]-3-oxo-propyl]imidazolidine-2,4-dione] |  | 54 nM | > 20000 nM | 37 nM | > 20000 nM
CC(CC1(C2CC2)NC(=O)NC1=O)C(=O)N1CCN(c2cc(F)cc(Cl)c2)[C@@H](C)C1 (stereo partly drawn) [compound 194, 5-[3-[(3S)-4-(3-chloro-5-fluoro-phenyl)-3-methyl-piperazin-1-yl]-2-methyl-3-oxo-propyl]-5-cyclopropyl-imidazolidine-2,4-dione] |  | 11 nM | > 4000 nM | 5 nM | 952 nM
O=C1NC(=O)C(CCC(=O)N2CCN(c3cc(Cl)cc(Cl)c3)CC2)(CNCc2ccccc2)N1 (stereo not shown) [Cpd 181, 5-[(benzylamino)methyl]-5-[3-[4-(3,5-dichlorophenyl)piperazin-1-yl]-3-oxo-propyl]imidazolidine-2,4-dione] |  | 97 nM | 2860 nM | 127 nM | > 20000 nM
CC(CC1(C2CC2)NC(=O)NC1=O)C(=O)N1CCN(c2ccc(F)c(Cl)c2)[C@@H](C)C1 (stereo partly drawn) [compound 192, 5-[3-[(3S)-4-(3-chloro-4-fluoro-phenyl)-3-methyl-piperazin-1-yl]-2-methyl-3-oxo-propyl]-5-cyclopropyl-imidazolidine-2,4-dione] |  | 11 nM | > 4000 nM | 6 nM | 865 nM
Cc1c(Cl)cc(Cl)cc1N1CCN(C(=O)CCC2(C3CC3)NC(=O)NC2=O)C[C@@H]1C (stereo partly drawn) [compound 177, 5-cyclopropyl-5-[3-[(3S)-4-(3,5-dichloro-2-methyl-phenyl)-3-methyl-piperazin-1-yl]-3-oxo-propyl]imidazolidine-2,4-dione] |  | 78 nM | 1990 nM | 40 nM | > 20000 nM
